Assay: xn = mol fraction of the nth substance listed
Settings: 101.3 kPa, Liquid; for mass density: Pycnometric method

CCCCCCCCCCCCCCCC [hexadecane] + CCCCCC
Settings | mass density [kg/m3] | speed of sound [m/s]
323.15 K, x2 = 0.1 | – | 1230
323.15 K, x2 = 0.2 | – | 1214
323.15 K, x2 = 0.3 | – | 1200
323.15 K, x2 = 0.4 | – | 1181
323.15 K, x2 = 0.5 | – | 1159
323.15 K, x2 = 0.6 | – | 1136
323.15 K, x2 = 0.7 | – | 1107
323.15 K, x2 = 0.8 | – | 1071
323.15 K, x2 = 0.9 | – | 1023
328.15 K, x2 = 0.1 | 743.88 | 1211
328.15 K, x2 = 0.2 | 737.89 | 1196
328.15 K, x2 = 0.3 | 731.41 | 1182
328.15 K, x2 = 0.4 | 723.62 | 1163
328.15 K, x2 = 0.5 | 714.52 | 1140
328.15 K, x2 = 0.6 | 703.55 | 1117
328.15 K, x2 = 0.7 | 690.44 | 1087
328.15 K, x2 = 0.8 | 674.25 | 1050
328.15 K, x2 = 0.9 | 653.04 | 1002
333.15 K, x2 = 0.1 | 740.37 | 1193
333.15 K, x2 = 0.2 | 734.36 | 1177
333.15 K, x2 = 0.3 | 727.88 | 1163
333.15 K, x2 = 0.4 | 720.01 | 1144
333.15 K, x2 = 0.5 | 710.8 | 1122
333.15 K, x2 = 0.6 | 699.74 | 1098
333.15 K, x2 = 0.7 | 686.47 | 1067
333.15 K, x2 = 0.8 | 670.09 | 1030
333.15 K, x2 = 0.9 | 648.56 | 981
338.15 K, x2 = 0.1 | – | 1176
338.15 K, x2 = 0.2 | – | 1160
338.15 K, x2 = 0.3 | – | 1145
338.15 K, x2 = 0.4 | – | 1126
338.15 K, x2 = 0.5 | – | 1103
338.15 K, x2 = 0.6 | – | 1079
338.15 K, x2 = 0.7 | – | 1048
338.15 K, x2 = 0.8 | – | 1010
338.15 K, x2 = 0.9 | – | 960
343.15 K, x2 = 0.1 | – | 1158
343.15 K, x2 = 0.2 | – | 1142
343.15 K, x2 = 0.3 | – | 1127
343.15 K, x2 = 0.4 | – | 1108
343.15 K, x2 = 0.5 | – | 1084
343.15 K, x2 = 0.6 | – | 1060
343.15 K, x2 = 0.7 | – | 1029
343.15 K, x2 = 0.8 | – | 990
343.15 K, x2 = 0.9 | – | 939
348.15 K, x2 = 0.1 | – | 1140
348.15 K, x2 = 0.2 | – | 1124
348.15 K, x2 = 0.3 | – | 1109
348.15 K, x2 = 0.4 | – | 1089
348.15 K, x2 = 0.5 | – | 1066
348.15 K, x2 = 0.6 | – | 1042
348.15 K, x2 = 0.7 | – | 1010
348.15 K, x2 = 0.8 | – | 971
348.15 K, x2 = 0.9 | – | 918
353.15 K, x2 = 0.1 | – | 1123
353.15 K, x2 = 0.2 | – | 1106
353.15 K, x2 = 0.3 | – | 1092
353.15 K, x2 = 0.4 | – | 1072
353.15 K, x2 = 0.5 | – | 1048
353.15 K, x2 = 0.6 | – | 1023
353.15 K, x2 = 0.7 | – | 991
353.15 K, x2 = 0.8 | – | 951
353.15 K, x2 = 0.9 | – | 898
358.15 K, x2 = 0.1 | – | 1106
358.15 K, x2 = 0.2 | – | 1089
358.15 K, x2 = 0.3 | – | 1074
358.15 K, x2 = 0.4 | – | 1054
358.15 K, x2 = 0.5 | – | 1030
358.15 K, x2 = 0.6 | – | 1005
358.15 K, x2 = 0.7 | – | 972
358.15 K, x2 = 0.8 | – | 932
358.15 K, x2 = 0.9 | – | 877
363.15 K, x2 = 0.1 | – | 1088
363.15 K, x2 = 0.2 | – | 1071
363.15 K, x2 = 0.3 | – | 1057
363.15 K, x2 = 0.4 | – | 1036
363.15 K, x2 = 0.5 | – | 1012
363.15 K, x2 = 0.6 | – | 986
363.15 K, x2 = 0.7 | – | 953
363.15 K, x2 = 0.8 | – | 912
363.15 K, x2 = 0.9 | – | 857
368.15 K, x2 = 0.1 | – | 1072
368.15 K, x2 = 0.2 | – | 1054
368.15 K, x2 = 0.3 | – | 1039
368.15 K, x2 = 0.4 | – | 1019
368.15 K, x2 = 0.5 | – | 995
368.15 K, x2 = 0.6 | – | 968
368.15 K, x2 = 0.7 | – | 935
368.15 K, x2 = 0.8 | – | 893
368.15 K, x2 = 0.9 | – | 837
373.15 K, x2 = 0.1 | – | 1055
373.15 K, x2 = 0.2 | – | 1037
373.15 K, x2 = 0.3 | – | 1022
373.15 K, x2 = 0.4 | – | 1002
373.15 K, x2 = 0.5 | – | 977
373.15 K, x2 = 0.6 | – | 950
373.15 K, x2 = 0.7 | – | 916
373.15 K, x2 = 0.8 | – | 874
373.15 K, x2 = 0.9 | – | 816
